Measurements as given in ChEMBL document CHEMBL1201862, “PubChem BioAssay data set” (2004).
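Results reflect a 48-hour exposure of cells in 96-well plates to compound at five concentrations. At the GI50, growth is halved.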 Activity calls are given as the source filed them. No stated cut-off is given here; in the data, active = GI50 up to about 1.1 µM and inactive = higher.

How the values were obtained:
Assay in all cases: NCI-60 cell line screen, 48 h
SK-OV-3 = tested on: SK-OV-3
HT-29 = tested on: HT-29
SR = tested on: SR
HOP-62 = tested on: HOP-62
NCI-H460 = tested on: NCI-H460
K562 = tested on: K562
HL-60 = tested on: HL-60
MOLT-4 = tested on: MOLT-4
RXF 393 = tested on: RXF 393
HOP-92 = tested on: HOP-92
M14 = tested on: M14
OVCAR-8 = tested on: OVCAR-8
OVCAR-4 = tested on: OVCAR-4
HCT-116 = tested on: HCT-116
NCI-H522 = tested on: NCI-H522
SF-539 = tested on: SF-539
HCC 2998 = tested on: HCC 2998
MDA-MB-231 = tested on: MDA-MB-231
PC-3 = tested on: PC-3

Measured: GI50

O=S(=O)(c1ccccc1)n1cnc(CCc2ccccc2)n1
inactive: SK-OV-3 > 100 µM | HT-29 > 100 µM | SR > 100 µM | HOP-62 > 100 µM | NCI-H460 > 100 µM | K562 > 100 µM | HL-60 > 100 µM | MOLT-4 > 100 µM | RXF 393 > 100 µM | HOP-92 > 100 µM | M14 > 100 µM | OVCAR-8 > 100 µM | OVCAR-4 > 100 µM | HCT-116 > 100 µM | NCI-H522 > 100 µM | SF-539 > 100 µM

COC1=CC(=O)c2c(cc3c(c2O)-c2c(OC)cc4cc5c(c(O)c4c2OC(=O)CC(C)(O)C3)C(=O)CC(C)(O)C5)C1=O (stereo not drawn)
inactive: SK-OV-3 2.76 µM | HT-29 1.96 µM | SR 2.02 µM | HOP-62 1.21 µM | NCI-H460 1.31 µM | K562 2.44 µM | HL-60 1.34 µM | MOLT-4 2.27 µM | RXF 393 2.05 µM | HOP-92 1.95 µM | M14 1.25 µM | HCC 2998 1.24 µM | OVCAR-8 1.55 µM | OVCAR-4 3.15 µM | HCT-116 2.45 µM | NCI-H522 1.32 µM | SF-539 1.57 µM

COc1ccc2c(c1)OCCCN(C)OC2c1ccccc1 (stereo not drawn)
inactive: SK-OV-3 > 100 µM | HT-29 > 100 µM | SR > 100 µM | K562 > 100 µM | MOLT-4 > 100 µM | RXF 393 > 100 µM | HCC 2998 > 100 µM | OVCAR-8 > 100 µM | HCT-116 > 100 µM | SF-539 > 100 µM

O=C1/C(=N\O)S(=O)(=O)c2ccccc21
inactive: SK-OV-3 > 100 µM | HT-29 92.7 µM | SR > 100 µM | HOP-62 > 100 µM | NCI-H460 > 100 µM | K562 > 100 µM | HL-60 > 100 µM | MOLT-4 > 100 µM | RXF 393 > 100 µM | HOP-92 > 100 µM | M14 > 100 µM | HCC 2998 > 100 µM | OVCAR-8 > 100 µM | OVCAR-4 > 100 µM | HCT-116 > 100 µM | NCI-H522 > 100 µM | SF-539 > 100 µM

CCCN1C(=O)C/C(=C\C(C)=O)Nc2ccccc21
inactive: SK-OV-3 > 100 µM | HT-29 > 100 µM | SR > 100 µM | HOP-62 > 100 µM | NCI-H460 > 100 µM | K562 > 100 µM | MOLT-4 > 100 µM | RXF 393 > 100 µM | HOP-92 > 100 µM | M14 > 100 µM | HCC 2998 > 100 µM | OVCAR-8 > 100 µM | OVCAR-4 > 100 µM | HCT-116 > 100 µM | NCI-H522 > 100 µM | SF-539 > 100 µM

O=C1C2Cc3ccccc3CN2C(=O)N1CCN1CCOCC1 (stereo not drawn)
inactive: SR > 100 µM | HOP-62 > 100 µM | NCI-H460 > 100 µM | K562 > 100 µM | HL-60 > 100 µM | MOLT-4 > 100 µM | M14 > 100 µM | HCC 2998 > 100 µM | OVCAR-8 > 100 µM | OVCAR-4 > 100 µM | NCI-H522 > 100 µM | SF-539 > 100 µM

O=c1[nH]c2ccc(CC(=S)N3CCN(c4ccccc4)CC3)cc2s1
inactive: SK-OV-3 15.7 µM | HT-29 51.8 µM | SR 19.9 µM | MDA-MB-231 21.9 µM | HOP-62 16.6 µM | NCI-H460 13 µM | K562 48.2 µM | HL-60 > 100 µM | MOLT-4 16.5 µM | RXF 393 18 µM | M14 23.1 µM | OVCAR-8 14.3 µM | PC-3 18.3 µM | HCT-116 33.9 µM | SF-539 28 µM

Cc1cc(=O)cc2sc3cc(Cl)ccc3nc1-2
inactive: SK-OV-3 20.7 µM | HT-29 20.3 µM | SR 3.07 µM | HOP-62 15.6 µM | NCI-H460 7.55 µM | K562 4.09 µM | HL-60 2.66 µM | MOLT-4 12.6 µM | RXF 393 4.76 µM | HOP-92 22.3 µM | M14 4.4 µM | HCC 2998 10.5 µM | OVCAR-8 8.99 µM | OVCAR-4 22.2 µM | HCT-116 9.42 µM | NCI-H522 2.54 µM | SF-539 7.66 µM

Cc1ccc(C(=O)/C=C/c2cccc([N+](=O)[O-])c2)cc1
inactive: SK-OV-3 > 94.4 µM | HT-29 29.3 µM | SR 18.6 µM | HOP-62 > 100 µM | NCI-H460 > 100 µM | K562 28.4 µM | HL-60 36.6 µM | MOLT-4 4.7 µM | RXF 393 > 43.7 µM | HOP-92 > 100 µM | M14 98.6 µM | HCC 2998 > 54.7 µM | OVCAR-8 42.9 µM | OVCAR-4 46.9 µM | HCT-116 16.6 µM | NCI-H522 62.5 µM | SF-539 > 58.6 µM

COc1ccccc1/C=C(\C#N)c1ccccc1
inactive: SK-OV-3 26.7 µM | HT-29 29.9 µM | SR 15.6 µM | HOP-62 46.5 µM | NCI-H460 23.8 µM | K562 11.4 µM | MOLT-4 16.6 µM | RXF 393 27.7 µM | HOP-92 45 µM | M14 32.8 µM | HCC 2998 34.4 µM | OVCAR-8 50.5 µM | OVCAR-4 30.2 µM | HCT-116 29.1 µM | NCI-H522 16.6 µM | SF-539 34.8 µM

Cc1cc([N+](=O)[O-])ccc1Nc1cccc(Cl)c1C
inactive: SK-OV-3 24.3 µM | HT-29 17.6 µM | SR 14.7 µM | HOP-62 14.7 µM | K562 11.3 µM | HL-60 18.2 µM | MOLT-4 14.8 µM | RXF 393 17.7 µM | M14 15.5 µM | HCC 2998 18.3 µM | OVCAR-8 15.1 µM | OVCAR-4 16.5 µM | HCT-116 16.1 µM | NCI-H522 16.1 µM

CCOC(=O)C(=Cc1cccnc1C)C(=O)OCC
inactive: SK-OV-3 11.3 µM | HT-29 5.15 µM | SR 3.61 µM | HOP-62 18.8 µM | NCI-H460 15.6 µM | K562 3.39 µM | HL-60 3.78 µM | MOLT-4 12.6 µM | RXF 393 4.35 µM | HOP-92 7.01 µM | M14 11.2 µM | OVCAR-8 5.18 µM | OVCAR-4 11 µM | HCT-116 5.01 µM | NCI-H522 3.89 µM | SF-539 6.15 µM

CN(C)CCCNc1ccnc2c([N+](=O)[O-])cccc12
inactive: SK-OV-3 3.85 µM | HT-29 3.56 µM | SR 27.9 µM | HOP-62 29.3 µM | NCI-H460 15.5 µM | K562 > 10 µM | HL-60 > 10 µM | MOLT-4 21.8 µM | M14 29.2 µM | HCC 2998 13.6 µM | OVCAR-8 20.7 µM | OVCAR-4 15.2 µM | HCT-116 15.3 µM | NCI-H522 17.1 µM | SF-539 20.7 µM
